{"source": "patent EP2391353B1", "about": "“PHARMACEUTICAL COMPOSITIONS OF TRIMETAZIDINE” (Lupin Limited, priority 2009, dated 2010)", "origin": "cited, not measured here", "settings": "administered orally"}
{"smiles": "COc1ccc(CN2CCNCC2)c(OC)c1OC.Cl.Cl", "note": "[Trimetazidine dihydrochloride, 1-(2,3,4-trimethoxybenzyl)-piperazine dihydrochloride]", "values": [{"measurement": "Tmax", "result": "around 1.8 ± 0.7 hours"}, {"measurement": "plasma half-life", "result": "around 6.0 ± 1.4 hours"}]}
